One experiment deals with D(1A) dopamine receptor (Rattus norvegicus, UniProt P18901).
The next experiment addresses D(2) dopamine receptor (Rattus norvegicus, UniProt P61169).
Experiment [1] can be described thus: Inhibition of Dopamine-stimulated adenylate cyclase obtained from rat corpus striatum was determined by the conversion of [32P]ATP to [32P]-cAMP.

D(2) dopamine receptor, sequence (P61169 whole entry): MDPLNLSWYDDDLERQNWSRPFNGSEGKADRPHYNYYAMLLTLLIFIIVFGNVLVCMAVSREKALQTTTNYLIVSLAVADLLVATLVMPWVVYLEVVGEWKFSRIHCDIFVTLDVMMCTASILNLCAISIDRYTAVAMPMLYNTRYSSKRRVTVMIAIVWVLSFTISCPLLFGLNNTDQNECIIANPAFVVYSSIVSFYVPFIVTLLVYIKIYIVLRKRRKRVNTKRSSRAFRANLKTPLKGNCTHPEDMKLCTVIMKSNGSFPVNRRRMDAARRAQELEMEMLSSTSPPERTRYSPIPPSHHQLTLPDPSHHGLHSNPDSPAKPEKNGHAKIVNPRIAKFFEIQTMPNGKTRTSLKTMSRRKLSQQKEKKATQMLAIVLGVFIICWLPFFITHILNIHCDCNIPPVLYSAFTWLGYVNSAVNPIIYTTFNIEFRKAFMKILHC
D(1A) dopamine receptor, sequence (P18901 whole entry): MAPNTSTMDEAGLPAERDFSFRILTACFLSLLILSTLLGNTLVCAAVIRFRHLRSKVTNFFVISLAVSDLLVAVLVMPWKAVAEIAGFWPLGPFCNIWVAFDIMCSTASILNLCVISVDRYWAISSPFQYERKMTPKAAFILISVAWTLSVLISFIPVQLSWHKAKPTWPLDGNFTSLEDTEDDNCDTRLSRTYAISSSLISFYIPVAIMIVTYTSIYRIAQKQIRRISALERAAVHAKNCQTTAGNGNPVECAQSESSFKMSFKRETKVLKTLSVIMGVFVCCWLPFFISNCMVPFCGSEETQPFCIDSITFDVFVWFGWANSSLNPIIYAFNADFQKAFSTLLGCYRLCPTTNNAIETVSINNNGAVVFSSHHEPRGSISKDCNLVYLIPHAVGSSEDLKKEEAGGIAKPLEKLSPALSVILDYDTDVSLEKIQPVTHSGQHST
Description for D(2) dopamine receptor: Inhibition of [3H]spiperone binding to Dopamine receptor D2 at 0.02 nM

As to `Oc1cc2c(cc1Cl)CCN[C@@H]2c1ccccc1`, the inhibitory constant (Ki) was determined as 743 nM at D(1A) dopamine receptor and 26300 nM on D(2) dopamine receptor.

Consider `Oc1cc2c(cc1Cl)CCNCC2c1ccccc1` (stereo unspecified), for which the Ki stood at 2.35 nM at D(1A) dopamine receptor and 676 nM at D(2) dopamine receptor.

Consider `CN1CCc2cc(Cl)c(O)cc2[C@H]1c1ccccc1`, for which the inhibitory constant (Ki) on D(1A) dopamine receptor came to 442 nM; at D(2) dopamine receptor it was 19200 nM.

As to `CCCN1CCc2cc(Cl)c(O)cc2[C@@H]1c1ccccc1`, the values for the Ki on D(1A) dopamine receptor and on D(2) dopamine receptor were 179 nM and 1900 nM, respectively.

In the case of `CN1CCc2cc(Cl)c(O)cc2[C@@H]1c1ccccc1`, the Ki was found to be 6.6 nM at D(1A) dopamine receptor and 1850 nM at D(2) dopamine receptor.

For `Oc1cc2c(cc1Cl)CCN[C@H]2c1ccccc1`, the Ki at D(1A) dopamine receptor came out at 140 nM; on D(2) dopamine receptor it was 3750 nM.

For `CN1Cc2cc(Cl)c(O)cc2C(c2ccccc2)C1` (racemic), the Ki was 174 nM on D(1A) dopamine receptor and 522 nM on D(2) dopamine receptor.

For the compound `CN1CCc2cc(Cl)c(O)cc2C1c1ccccc1` (racemic), the values for the Ki (at D(1A) dopamine receptor; in experiment [1]; at D(2) dopamine receptor) were 12.5 nM, 8.98 nM and 915 nM, respectively.

Consider `Oc1cc2c(cc1Cl)CNCC2c1ccccc1` (racemic), for which the figures for the inhibition constant (Ki) at D(1A) dopamine receptor and on D(2) dopamine receptor were 565 nM and 3620 nM, respectively.

For `CN1CCc2cc(Cl)c(O)cc2C1Cc1ccccc1` (racemic), the Ki on D(1A) dopamine receptor came to 53.2 nM; on D(2) dopamine receptor it was 287 nM.

The values above are taken from ChEMBL document CHEMBL1123976, “Synthesis and pharmacological characterization of 1-phenyl-, 4-phenyl-, and 1-benzyl-1,2,3,4-tetrahydroisoquinolines as dopamine receptor ligands” (J Med Chem, 1988).
